Reference: ChEMBL document CHEMBL6121063, “Identification of a Potent and Selective CDK9 Degrader as a Targeted Therapeutic Option for the Treatment of Small-Cell Lung Cancer” (J Med Chem, 2025)
Converted amounts (≈) assume the structure as drawn.

What was measured:
[1] = Half-life in mouse at 25 mg/kg, po; format: ADME, organism-based; conditions: in vivo
[2] = Cytotoxicity against human L02 cells assessed as inhibition of cell growth incubated for 72 hrs by CCK8 assay; format: toxicity, cell-based
[3] = AUC (0 to 24 hrs) in mouse at 5 mg/kg, iv; format: ADME, organism-based; conditions: in vivo
[4] = Toxicity in mouse assessed as pathological changes in liver at 12.5 to 25 mg/kg, po administered daily for 14 days by H and E staining based analysis; format: organism-based; conditions: in vivo, 336 h, dose 12.5-25 mg/kg, time 14 day
[5] = target: Protein cereblon/Cyclin-dependent kinase 9 (Homo sapiens, UniProt P50750+Q96SW2); experiment: PROTAC activity at CRBN/CDK9 in human NCI-H69 cells assessed as induction of CDK9 degradation incubated for 8 hrs by Western blot analysis; format: cell-based
[6] = Cmax in Sprague-Dawley rat at 5 mg/kg, iv measured after 12 hrs by LC-MS/MS analysis; format: ADME, organism-based; conditions: in vivo
Mus musculus [7] = experiment: Toxicity in female NU/NU mouse model xenografted with human NCI-H446 cells assessed as effect on body weight at 12.5 to 25 mg/kg, po administered once daily for 15 days; format: organism-based; conditions: in vivo, 360 h, dose 12.5-25 mg/kg, time 15 day
[8] = Apparent permeability across apical to basolateral side in human Caco-2 cells at 2 uM measured after 60 mins by HPLC analysis; format: ADME, cell-based
[9] = AUC (0 to 24 hrs) in mouse at 25 mg/kg, po; format: ADME, organism-based; conditions: in vivo
[10] = Metabolic stability in mouse liver microsomes assessed as half-life; format: ADME, Microsome; conditions: liver microsomes
NCI-H446 [11] = experiment: Antiproliferative activity against human NCI-H446 cells assessed as inhibition of cell growth incubated for 72 hrs by CCK8 assay; format: functional, cell-based; conditions: NCI-H446, 72 h
[12] = Half-life in Sprague-Dawley rat at 25 mg/kg, po measured after 12 hrs by LC-MS/MS analysis; format: ADME, organism-based; conditions: in vivo
[13] = Apparent permeability across basolateral to apical side in human Caco-2 cells at 2 uM measured after 60 mins by HPLC analysis; format: ADME, cell-based
[14] = Toxicity in mouse assessed as pathological changes in kidney at 12.5 to 25 mg/kg, po administered daily for 14 days by H and E staining based analysis; format: organism-based; conditions: in vivo, 336 h, dose 12.5-25 mg/kg, time 14 day
[15] = Cmax in Sprague-Dawley rat at 25 mg/kg, po measured after 12 hrs by LC-MS/MS analysis; format: ADME, organism-based; conditions: in vivo
[16] = AUC (0 to 24 hrs) in Sprague-Dawley rat at 5 mg/kg, iv measured after 12 hrs by LC-MS/MS analysis; format: ADME, organism-based; conditions: in vivo
[17] = Oral bioavailability in mouse at 25 mg/kg; format: ADME, organism-based; conditions: in vivo
NCI-H446 [18] = experiment: Antitumor activity against human NCI-H446 cells xenografted in female NU-NU mouse model assessed as tumor growth inhibition at 25 mg/kg, po administered once daily for 15 days relative to control; format: functional; conditions: NCI-H446, 360 h, time 15 day, read-out: TGI
Mus musculus [19] = experiment: Hematotoxicity in mouse assessed as effect on WBC count at 12.5 to 25 mg/kg, po administered daily for 14 days; format: toxicity, organism-based; conditions: in vivo, 336 h, dose 12.5-25 mg/kg, time 14 day
NCI-H524 = experiment: Antiproliferative activity against human NCI-H524 cells assessed as inhibition of cell growth incubated for 72 hrs by CCK8 assay; format: functional, cell-based; conditions: NCI-H524, 72 h
[20] = Toxicity in mouse assessed as pathological changes in lung at 12.5 to 25 mg/kg, po administered daily for 14 days by H and E staining based analysis; format: organism-based; conditions: in vivo, 336 h, dose 12.5-25 mg/kg, time 14 day
[21] = AUC (0 to infinity) in mouse at 25 mg/kg, po; format: ADME, organism-based; conditions: in vivo
[22] = AUC (0 to infinity) in Sprague-Dawley rat at 5 mg/kg, iv measured after 12 hrs by LC-MS/MS analysis; format: ADME, organism-based; conditions: in vivo
[23] = Cmax in mouse at 25 mg/kg, po; format: ADME, organism-based; conditions: in vivo
[24] = Efflux ratio of apparent permeability across basolateral to apical over apical to basolateral side in human Caco-2 cells at 2 uM measured after 60 mins by HPLC analysis; format: ADME, cell-based
[25] = Cmax in mouse at 5 mg/kg, iv; format: ADME, organism-based; conditions: in vivo
NCI-H446 [26] = experiment: Antitumor activity against human NCI-H446 cells xenografted in female NU-NU mouse model assessed as tumor growth inhibition at 12.5 mg/kg, po administered once daily for 15 days relative to control; format: functional; conditions: NCI-H446, 360 h, time 15 day, read-out: TGI
[27] = AUC (0 to infinity) in Sprague-Dawley rat at 25 mg/kg, po measured after 12 hrs by LC-MS/MS analysis; format: ADME, organism-based; conditions: in vivo
DMS-114 = experiment: Antiproliferative activity against human DMS-114 cells assessed as inhibition of cell growth incubated for 72 hrs by CCK8 assay; format: functional, cell-based; conditions: DMS-114, 72 h
[28] = Cytotoxicity against HEK293T cells assessed as inhibition of cell growth incubated for 72 hrs by CCK8 assay; format: toxicity, cell-based, HEK-293T; conditions: human
[29] = target: Voltage-gated inwardly rectifying potassium channel KCNH2 (Homo sapiens, UniProt Q12809); experiment: Inhibition of human ERG expressed in HEK293 cells by manual-patch clamp assay; format: toxicity, cell-based
[30] = Metabolic stability in mouse liver microsomes assessed as parent compound remaining measured after 60 mins; format: ADME, Microsome; conditions: read-out: Stability
NCI-H69 = experiment: Antiproliferative activity against human NCI-H69 cells assessed as inhibition of cell growth incubated for 72 hrs by CCK8 assay; format: functional, cell-based; conditions: NCI-H69, 72 h
[31] = AUC (0 to infinity) in mouse at 5 mg/kg, iv; format: ADME, organism-based; conditions: in vivo
[32] = Oral bioavailability in Sprague-Dawley rat at 25 mg/kg measured after 12 hrs by LC-MS/MS analysis; format: ADME, organism-based; conditions: in vivo
[33] = Half-life in Sprague-Dawley rat at 5 mg/kg, iv measured after 12 hrs by LC-MS/MS analysis; format: ADME, organism-based; conditions: in vivo
[34] = Kinetic solubility of compound in FeSSIF buffer incubated for 2 hrs by LC-MS/MS analysis; format: physicochemical; conditions: read-out: Kinetic_solubility
Mus musculus [35] = experiment: Hematotoxicity in mouse assessed as effect on platelet count at 12.5 to 25 mg/kg, po administered daily for 14 days; format: toxicity, organism-based; conditions: in vivo, 336 h, dose 12.5-25 mg/kg, time 14 day
[36] = Toxicity in mouse assessed as pathological changes in heart at 12.5 to 25 mg/kg, po administered daily for 14 days by H and E staining based analysis; format: organism-based; conditions: in vivo, 336 h, dose 12.5-25 mg/kg, time 14 day
[37] = Cytotoxicity against human BEAS-2B cells assessed as inhibition of cell growth incubated for 72 hrs by CCK8 assay; format: toxicity, cell-based
[38] = Toxicity in mouse assessed as pathological changes in spleen at 12.5 to 25 mg/kg, po administered daily for 14 days by H and E staining based analysis; format: organism-based; conditions: in vivo, 336 h, dose 12.5-25 mg/kg, time 14 day
NCI-H146 = experiment: Antiproliferative activity against human NCI-H146 cells assessed as inhibition of cell growth incubated for 72 hrs by CCK8 assay; format: functional, cell-based; conditions: NCI-H146, 72 h
[39] = Metabolic stability in human liver microsomes assessed as half-life; format: ADME, Microsome; conditions: liver microsomes
[40] = Cytotoxicity against human MCF-10A cells assessed as inhibition of cell growth incubated for 72 hrs by CCK8 assay; format: toxicity, cell-based
[41] = Metabolic stability in mouse liver microsomes assessed as intrinsic clearance; format: ADME, Microsome; conditions: liver microsomes, read-out: CLH
[42] = AUC (0 to 24 hrs) in Sprague-Dawley rat at 25 mg/kg, po measured after 12 hrs by LC-MS/MS analysis; format: ADME, organism-based; conditions: in vivo
[43] = Metabolic stability in human liver microsomes assessed as intrinsic clearance; format: ADME, Microsome; conditions: liver microsomes, read-out: CLH
Mus musculus [44] = experiment: Toxicity in female NU/NU mouse model xenografted with human NCI-H446 cells expressing luciferase-GFP assessed as effect on body weight at 12.5 to 25 mg/kg, po administered for 19 days; format: organism-based; conditions: in vivo, 456 h, dose 12.5-25 mg/kg, time 19 day
[45] = Half-life in mouse at 5 mg/kg, iv; format: ADME, organism-based; conditions: in vivo
[46] = Metabolic stability in human liver microsomes assessed as parent compound remaining measured after 60 mins; format: ADME, Microsome; conditions: read-out: Stability
[47] = target: Cyclin-dependent kinase 1 (Homo sapiens, UniProt P06493)
[48] = target: Cyclin-dependent kinase 3 (Homo sapiens, UniProt Q00526); experiment: Inhibition of CDK3 (unknown origin)
[49] = target: Cyclin-dependent kinase 5 (Homo sapiens, UniProt Q00535)
[50] = target: Cyclin-dependent kinase 2 (Homo sapiens, UniProt P24941); experiment: Inhibition of CDK2 (unknown origin)
[51] = target: Cyclin-dependent kinase 4 (Homo sapiens, UniProt P11802); experiment: Inhibition of CDK4 (unknown origin)
Chain of Cyclin-dependent kinase 4 (P11802 whole entry): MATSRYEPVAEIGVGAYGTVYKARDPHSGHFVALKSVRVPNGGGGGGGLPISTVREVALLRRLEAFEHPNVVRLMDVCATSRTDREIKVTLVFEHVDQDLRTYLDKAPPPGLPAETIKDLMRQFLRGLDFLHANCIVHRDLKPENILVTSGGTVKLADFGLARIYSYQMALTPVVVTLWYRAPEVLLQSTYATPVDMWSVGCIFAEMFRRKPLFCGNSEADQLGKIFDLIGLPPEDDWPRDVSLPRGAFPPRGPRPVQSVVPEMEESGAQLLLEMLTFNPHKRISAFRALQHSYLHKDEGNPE

Chain of Voltage-gated inwardly rectifying potassium channel KCNH2 (Q12809 whole entry): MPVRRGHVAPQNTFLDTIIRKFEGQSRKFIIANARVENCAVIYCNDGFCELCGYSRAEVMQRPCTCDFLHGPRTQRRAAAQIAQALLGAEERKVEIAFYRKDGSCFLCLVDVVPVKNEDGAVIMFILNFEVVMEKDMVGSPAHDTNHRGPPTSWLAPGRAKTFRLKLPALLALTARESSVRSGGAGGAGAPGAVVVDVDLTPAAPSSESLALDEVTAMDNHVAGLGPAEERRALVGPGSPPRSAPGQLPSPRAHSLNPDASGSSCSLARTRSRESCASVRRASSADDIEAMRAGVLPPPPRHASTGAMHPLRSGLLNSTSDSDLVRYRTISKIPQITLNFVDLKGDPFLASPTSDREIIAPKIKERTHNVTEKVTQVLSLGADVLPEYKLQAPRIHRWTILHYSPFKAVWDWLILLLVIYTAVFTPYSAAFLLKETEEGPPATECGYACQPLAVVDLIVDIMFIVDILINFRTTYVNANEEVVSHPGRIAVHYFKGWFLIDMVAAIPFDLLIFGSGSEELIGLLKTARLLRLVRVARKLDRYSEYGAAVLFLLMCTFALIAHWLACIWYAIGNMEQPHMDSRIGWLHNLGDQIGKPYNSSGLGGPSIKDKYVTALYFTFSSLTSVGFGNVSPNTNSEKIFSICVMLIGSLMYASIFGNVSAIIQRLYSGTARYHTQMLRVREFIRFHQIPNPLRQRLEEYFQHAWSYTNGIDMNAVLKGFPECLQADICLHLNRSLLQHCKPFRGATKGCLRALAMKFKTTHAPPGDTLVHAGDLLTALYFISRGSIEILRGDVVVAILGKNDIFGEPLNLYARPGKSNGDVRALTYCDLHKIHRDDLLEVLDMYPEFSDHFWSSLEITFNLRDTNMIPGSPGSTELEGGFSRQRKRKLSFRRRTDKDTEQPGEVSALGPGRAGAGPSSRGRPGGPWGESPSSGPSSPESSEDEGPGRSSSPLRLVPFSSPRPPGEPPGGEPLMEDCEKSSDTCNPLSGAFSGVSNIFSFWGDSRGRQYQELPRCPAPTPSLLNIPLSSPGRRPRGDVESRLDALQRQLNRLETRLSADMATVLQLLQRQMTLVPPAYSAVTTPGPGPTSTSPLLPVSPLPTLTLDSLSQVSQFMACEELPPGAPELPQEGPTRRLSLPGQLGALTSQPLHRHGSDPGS
Chain of Cyclin-dependent kinase 3 (Q00526 whole entry): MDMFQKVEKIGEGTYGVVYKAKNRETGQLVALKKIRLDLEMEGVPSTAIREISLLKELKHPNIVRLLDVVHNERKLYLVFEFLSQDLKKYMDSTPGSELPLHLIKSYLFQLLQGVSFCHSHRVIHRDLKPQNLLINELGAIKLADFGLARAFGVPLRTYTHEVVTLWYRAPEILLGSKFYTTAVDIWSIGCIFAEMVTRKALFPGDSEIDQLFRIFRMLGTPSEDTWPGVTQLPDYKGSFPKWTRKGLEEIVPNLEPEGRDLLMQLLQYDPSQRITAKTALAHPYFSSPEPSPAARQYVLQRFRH
Chain of Protein cereblon/Cyclin-dependent kinase 9 (P50750 whole entry): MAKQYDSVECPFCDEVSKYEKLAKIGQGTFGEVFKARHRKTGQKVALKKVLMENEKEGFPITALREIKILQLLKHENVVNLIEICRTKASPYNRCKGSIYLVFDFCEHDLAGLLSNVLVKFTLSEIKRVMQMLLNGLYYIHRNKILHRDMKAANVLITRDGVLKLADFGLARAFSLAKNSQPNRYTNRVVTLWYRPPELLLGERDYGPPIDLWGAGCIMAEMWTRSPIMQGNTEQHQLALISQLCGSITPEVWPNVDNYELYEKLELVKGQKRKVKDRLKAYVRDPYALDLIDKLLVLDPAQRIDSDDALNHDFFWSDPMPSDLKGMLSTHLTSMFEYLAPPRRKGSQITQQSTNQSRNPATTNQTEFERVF
Chain of Protein cereblon/Cyclin-dependent kinase 9 (Q96SW2 whole entry): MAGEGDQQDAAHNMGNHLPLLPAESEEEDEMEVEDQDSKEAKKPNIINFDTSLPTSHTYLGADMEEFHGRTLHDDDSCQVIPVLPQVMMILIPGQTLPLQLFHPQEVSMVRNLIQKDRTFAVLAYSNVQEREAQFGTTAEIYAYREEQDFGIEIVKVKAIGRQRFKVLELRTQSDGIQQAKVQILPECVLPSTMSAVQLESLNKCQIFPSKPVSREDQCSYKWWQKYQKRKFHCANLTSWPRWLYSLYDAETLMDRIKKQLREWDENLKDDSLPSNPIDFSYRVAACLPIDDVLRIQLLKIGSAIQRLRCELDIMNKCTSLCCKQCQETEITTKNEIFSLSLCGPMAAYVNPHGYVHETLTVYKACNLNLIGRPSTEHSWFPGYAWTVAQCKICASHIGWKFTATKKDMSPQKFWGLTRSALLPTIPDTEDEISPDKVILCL
Chain of Cyclin-dependent kinase 1 (P06493 whole entry): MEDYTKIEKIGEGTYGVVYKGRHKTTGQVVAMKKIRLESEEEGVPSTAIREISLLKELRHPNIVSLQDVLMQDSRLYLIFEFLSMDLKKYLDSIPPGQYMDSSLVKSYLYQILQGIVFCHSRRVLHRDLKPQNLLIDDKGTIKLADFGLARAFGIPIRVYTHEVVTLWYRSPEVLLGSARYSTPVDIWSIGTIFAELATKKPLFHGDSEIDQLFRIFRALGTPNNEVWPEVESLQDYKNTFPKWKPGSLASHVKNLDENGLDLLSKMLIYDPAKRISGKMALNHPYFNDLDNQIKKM
Chain of Cyclin-dependent kinase 5 (Q00535 whole entry): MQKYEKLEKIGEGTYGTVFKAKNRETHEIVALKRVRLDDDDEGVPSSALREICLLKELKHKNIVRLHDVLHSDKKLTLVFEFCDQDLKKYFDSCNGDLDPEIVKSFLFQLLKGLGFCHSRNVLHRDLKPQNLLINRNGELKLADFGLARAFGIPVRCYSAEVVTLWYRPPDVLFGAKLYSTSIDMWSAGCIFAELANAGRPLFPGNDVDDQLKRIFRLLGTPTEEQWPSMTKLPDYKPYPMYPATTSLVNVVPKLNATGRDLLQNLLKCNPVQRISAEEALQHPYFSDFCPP

With O=C1CCC(Nc2cccc(N3CCN(CC4CCN(CC(=O)N5CCC(NC(=O)c6n[nH]cc6NC(=O)c6c(Cl)cccc6Cl)CC5)CC4)CC3)c2)C(=O)N1 (stereo not given) the half-life [1] was 4.7 h, the IC50 at 72 h [2] was 70 nM and the AUC(0-t) [3] was 2660 ng·h/mL. The Activity [4] was “Minimal_effect”, the DC50 [5] was 1.09 nM and the Cmax [6] was 2000 ng/mL. The Activity (Mus musculus [7]) was “Non-toxic”, the Papp A→B at 1 h, 2 µM [8] was 1.81 ×10⁻⁶ cm/s and the AUC(0-t) [9] was 951 ng·h/mL. It also gave a half-life [10] of 2.42 h, an IC50 (NCI-H446 [11]) of 1.01 nM and a half-life [12] of 5.4 h. The Papp B→A at 1 h, 2 µM [13] was 9.47 ×10⁻⁶ cm/s, the Activity [14] was “Minimal_effect” and the Cmax [15] was 179 ng/mL. The AUC(0-t) at 12 h [16] was 2180 ng·h/mL, the bioavailability [17] was 6.8% and the inhibition in vivo at 25 mg/kg (NCI-H446 [18]) was 84.8%. The Activity (Mus musculus [19]) was “Non-toxic”, the IC50 (NCI-H524) was 0.53 nM and the Activity [20] was “Minimal_effect”. The AUC(0-inf) [21] was 971 ng·h/mL, the AUC(0-inf) [22] was 2330 ng·h/mL and the Cmax [23] was 277 ng/mL. For the same molecule, the efflux ratio at 1 h, 2 µM [24] was 5.2, the Cmax [25] was 2600 ng/mL and the inhibition in vivo at 12.5 mg/kg (NCI-H446 [26]) was 79.2%. For the same molecule, the AUC(0-inf) [27] was 893 ng·h/mL, the IC50 (DMS-114) was 0.53 nM and the IC50 at 72 h [28] was 95 nM. For the same molecule, the IC50 [29] was > 30000 nM, the remaining at 1 h [30] was 82.8% and the IC50 (NCI-H69) was 1.03 nM. For the same molecule, the AUC(0-inf) [31] was 2860 ng·h/mL, the bioavailability [32] was 6.5% and the half-life [33] was 2.8 h. For the same molecule, the solubility kinetic at 2 h [34] was 234 µM (≈ 189 µg/mL), the Activity (Mus musculus [35]) was “Non-toxic” and the Activity [36] was “Minimal_effect”. The IC50 at 72 h [37] was 413 nM, the Activity [38] was “Minimal_effect” and the IC50 (NCI-H146) was 0.53 nM. For the same molecule, the half-life [39] was 1.77 h, the IC50 at 72 h [40] was 126 nM and the microsomal CLint [41] was 9.4 µL/min/mg. For the same molecule, the AUC(0-t) at 12 h [42] was 714 ng·h/mL, the microsomal CLint [43] was 11 µL/min/mg and the Activity (Mus musculus [44]) was “Non-toxic”. It also gave a half-life [45] of 8.2 h and a remaining at 1 h [46] of 76.2%.

For COCCN1CCN(Cc2ccc(-c3n[nH]c4c3C(=O)c3c(NC(=O)NN5CCOCC5)cccc3-4)cc2)CC1 [RGB-286638], the IC50 [47] was < 5 nM, the IC50 [48] was < 5 nM and the IC50 [49] was < 5 nM. The IC50 [50] was < 5 nM and the IC50 [51] was < 5 nM.
